{"source": "patent US9969771B2", "about": "“Tetrapeptide having effect of inhibiting VEGF-induced angiogenesis and use thereof” (AVIXGEN INC., priority 2015, dated 2018)", "key": {"HUVECs [1]": {"tested_on": "HUVECs", "test": "VEGF-induced HUVEC proliferation, [3H]-thymidine incorporation assay", "assay_type": "cell-based, human", "conditions": "for pIC50: 3 h; for inhibition of VEGF-induced HUVEC proliferation: VEGF 10 ng/ml, [3H]-thymidine incorporation", "description": "Human umbilical vein endothelial cells (HUVECs) were cultured in M199 medium, and during experiments, the cells were always used at passages 2 to 7. Meanwhile, mouse melanoma cells (B16F1 and B16F10) and human colorectal tumor cells (HCT116) were cultured in RPMI media supplemented with 10% FBS, 1 mM sodium pyruvate, 10 mM 4-(2-hydroxyethyl)-1-piperazineethanesulfonic acid and 100 U/ml penicillin-streptomycin, and human multiple myeloma cells (IM-9 and RPMI 8226) were cultured in RPMI-1640 media. All of the cells were cultured at 37° C. with 5% CO2 in a humidified incubator.\nAngiogenic activity was determined by measuring cell proliferation, migration and tube formation. HUVEC proliferation was analyzed by a [3H]-thymidine incorporation assay. The HUVECs were seeded in a 24-well plate coated with gelatin at a density of 2×10^4 cells/well. […] […] […] 3H-labeled polymer DNA was evaluated with a liquid scintillation counter."}, "HUVECs [2]": {"tested_on": "HUVECs", "test": "FACS analysis of FITC-RLYE binding to HUVECs", "set-up": "species or system human", "description": "HUVECs were cultured in a 60-mm culture plate for 24 hours. The cells were isolated from the plate with 5 mM EDTA-containing phosphate-buffered saline (PBS), washed with PBS three times, and suspended in 2% FBS/0.1% bovine serum albumin-containing PBS. Afterward, before or after the reaction with FITC-conjugated RLYE (SEQ ID NO: 2) (15 nM), the cells were treated with VEGF (100 ng/ml), stored on ice for 30 minutes, fixed in 2% paraformaldehyde, and assessed with a fluorescence activated cell sorter (FACS Calibur, Becton Dickinson) by flow cytometry."}, "ERK": {"tested_on": "ERK", "test": "Western blot, ERK phosphorylation in HUVECs", "assay_type": "cell-based, human", "conditions": "VEGF / VEGF-A stimulated", "description": "Cells were lyzed in RIPA buffer, and 50 μg of proteins were isolated by SDS-PAGE and then transferred to a PVDF membrane. The membrane was reacted with an antibody with respect to a target protein for 2 hours. The membrane was washed twice and reacted with a horseradish peroxidase-conjugated antibody, and then an amount of the target proteins was assessed with an enhanced chemiluminescence system."}, "zebrafish": {"tested_on": "zebrafish", "test": "Zebrafish angiogenesis assay", "assay_type": "in vivo", "conditions": "zebrafish embryo", "description": "An adult zebrafish and an embryo were grown and maintained in a standard laboratory environment, and a zebrafish experiment was conducted according to the protocols approved by the animal ethics committee of Chungnam National University. To analyze angiogenesis, at 48 hours post fertilization (hpf), the embryo was anesthetized with tricaine (MS-222, 0.02%, embryo buffer), a peptide was administered, and FITC-dextran (2,000 kDa, Sigma) was further injected. A blood vessel image was obtained with a Leica DM5000B system at 72 hpf. As a probe for whole mount in situ hybridization, digoxigenin (DIG)-labeled RNA prepared by a cad5 (NM_001003983) gene was used. Meanwhile, a peptide was injected into the 18-hpf embryo collected at 25 hpf, fixed with 4% paraformaldehyde, washed with PBS (in 0.1% Tween20), and hybridized with DIG-labeled riboprobes (hybridization buffer). Subsequently, the resulting product was reacted with an alkaline phosphatase (AP)-conjugated anti-DIG antibody. Following reaction with an AP staining solution, a staining status was observed and visualized under a microscope (Leica, MZ-16)."}}, "note": "pIC50: −log10 of the molar value. Where a SMILES comes first, the peptide text is derived from it. Where no end group is shown, it is not given here. The star is where a group is joined. FITC = O=C1OC2(c3ccc(O)cc3Oc3cc(O)ccc32)c2ccc(NC(=S)*)cc21"}
{"compound": "CC(C)C[C@H](NC(=O)[C@@H](N)CCCCN)C(=O)N[C@@H](Cc1ccc(O)cc1)C(=O)N[C@@H](CC(=O)O)C(=O)O", "note": "[KLYD, reference compound] (H-KLYD-OH; N-terminus and C-terminus assumed)", "values": [{"measurement": "pIC50", "setting": "HUVECs [1]", "result": 9.10}, {"measurement": "inhibition of VEGF-induced HUVEC proliferation", "setting": "HUVECs [1]", "result": "significantly inhibited"}]}
{"compound": "RLME: synthesized tetrapeptide based on KLYD", "values": [{"measurement": "inhibition of VEGF-induced HUVEC proliferation", "setting": "HUVECs [1]", "result": "did not exhibit a significant inhibitory effect"}]}
{"compound": "KLFD: synthesized tetrapeptide based on KLYD", "values": [{"measurement": "inhibition of VEGF-induced HUVEC proliferation", "setting": "HUVECs [1]", "result": "inhibitory effect similar to the positive control"}]}
{"compound": "FITC-RLYE: FITC-conjugated RLYE (SEQ ID NO: 2) peptide used for FACS and confocal binding ({FITC}-RLYE)", "values": [{"measurement": "binding to HUVEC surface (FACS)", "setting": "HUVECs [2]; VEGF-A-pretreated cells", "result": "did not bind"}, {"measurement": "binding to HUVEC surface (FACS)", "setting": "HUVECs [2]; cells not treated with VEGF-A", "result": "bound to a cell surface"}]}
{"compound": "KLWD: synthesized tetrapeptide based on KLYD", "values": [{"measurement": "inhibition of VEGF-induced HUVEC proliferation", "setting": "HUVECs [1]", "result": "did not exhibit a significant inhibitory effect"}]}
{"compound": "CC(C)C[C@H](NC(=O)[C@@H](N)CCCCN)C(=O)N[C@@H](Cc1ccc(O)cc1)C(=O)N[C@@H](CCC(=O)O)C(=O)O", "note": "[KLYE] (H-KLYE-OH; N-terminus and C-terminus assumed)", "values": [{"measurement": "inhibition of VEGF-induced ERK phosphorylation", "setting": "ERK", "result": "more effectively inhibited"}, {"measurement": "pIC50", "setting": "HUVECs [1]", "result": 9.52}, {"measurement": "inhibition of VEGF-induced HUVEC proliferation", "setting": "HUVECs [1]", "result": "effectively inhibited"}]}
{"compound": "CC(C)C[C@H](NC(=O)[C@@H](N)CCCNC(=N)N)C(=O)N[C@@H](Cc1ccc(O)cc1)C(=O)N[C@@H](CC(=O)O)C(=O)O", "note": "[RLYD] (H-RLYD-OH; N-terminus and C-terminus assumed)", "values": [{"measurement": "inhibition of VEGF-induced ERK phosphorylation", "setting": "ERK", "result": "more effectively inhibited"}, {"measurement": "pIC50", "setting": "HUVECs [1]", "result": 9.85}, {"measurement": "inhibition of VEGF-induced HUVEC proliferation", "setting": "HUVECs [1]", "result": "effectively inhibited"}]}
{"compound": "EYLR: scrambled peptide against RLYE, used as a control [reference compound]", "values": [{"measurement": "formation of intersegmental vessels (ISV)", "setting": "zebrafish", "result": "did not affect the ISV formation"}, {"measurement": "formation of subintestinal vessels (SIV)", "setting": "zebrafish", "result": "did not affect the SIV formation"}, {"measurement": "inhibition of VEGF-induced HUVEC proliferation", "setting": "HUVECs [1]", "result": "did not exhibit a significant inhibitory effect"}]}
{"compound": "CC(C)[C@H](NC(=O)[C@@H](N)CCCNC(=N)N)C(=O)N[C@@H](Cc1ccc(O)cc1)C(=O)N[C@@H](CCC(=O)O)C(=O)O", "note": "[RVYE] (H-RVYE-OH; N-terminus and C-terminus assumed)", "values": [{"measurement": "inhibition of VEGF-induced ERK phosphorylation", "setting": "ERK", "result": "more effectively inhibited"}, {"measurement": "pIC50", "setting": "HUVECs [1]", "result": 9.41}, {"measurement": "inhibition of VEGF-induced HUVEC proliferation", "setting": "HUVECs [1]", "result": "effectively inhibited"}]}
{"compound": "KIYD: synthesized tetrapeptide based on KLYD", "values": [{"measurement": "inhibition of VEGF-induced HUVEC proliferation", "setting": "HUVECs [1]", "result": "inhibitory effect similar to the positive control"}]}
